The values that follow come from patent publication US20250268830A1, “SUSTAINED RELEASE INJECTABLE PHARMACEUTICAL FORMULATION OF LEVOTHYROXINE AND PROCESS FOR PREPARATION THEREOF” (PHARMATHEN S.A., priority 2021, published 2025).

The nature of series [1]: solubility of the API in MeOH. The format is physicochemical. Particulars: 20° C. As to the method: The solubility at 20° C. of the API in MeOH was determined as follows: approximately 50 mg Levothyroxine sodium were weighed in a vial. Methanol was gradually added until the solution became clear.
Series [2] can be described thus: LVX solubility in DCM/MeOH 10/3 with PLGA (evaluation of maximum theoretical drug loading). It is filed as physicochemical. As to the method:
A quantity of approximately 0.25 g of polymer and varying quantities of LVX corresponding to theoretical drug loading values 1%, 2%, 3% and 4% were weighed in four vials. A DCM/MeOH mixture at a ratio of 10/3 (to ensure the polymer is always dissolved) was gradually added in each vial. The respective PLGA (PURASORB PDLG 5002A) concentrations, % LVX content and LVX solubility were evaluated and are presented in the table below.

For the compound `N[C@@H](Cc1cc(I)c(Oc2cc(I)c(O)c(I)c2)c(I)c1)C(=O)O` [Levothyroxine sodium], in series [1], the “solubility in MeOH” value is 3.41 % mass LVX/mass of MeOH. Further, the “ratio LVX/(DCM+MeOH) at which levothyroxine is dissolved” value in series [2] (DCM/MeOH 10/3 with PLGA) is given as “below 0.1%”. Also, the “LVX Solubility” value in series [2] (Vial 1, 1.0% TDL, DCM+MeOH 2.5 g, 0.11% LVX in mix, 13.01% PLGA in DCM) is given as “Insoluble”; in series [2] (Vial 1, 1.0% TDL, DCM+MeOH 3.3 g, 0.08% LVX in mix, 9.99% PLGA in DCM) it was “Almost Clear”; in series [2] (Vial 1, 1.0% TDL, DCM+MeOH 4.3 g, 0.06% LVX in mix, 7.63% PLGA in DCM) it was “Clear”; in series [2] (Vial 1, 1.0% TDL, DCM+MeOH 5.5 g, 0.05% LVX in mix, 5.92% PLGA in DCM), “Clear”; in series [2] (Vial 2, 2.0% TDL, DCM+MeOH 2.6 g, 0.20% LVX in mix, 12.58% PLGA in DCM), “Slurry”; in series [2] (Vial 2, 2.0% TDL, DCM+MeOH 3.3 g, 0.16% LVX in mix, 10.05% PLGA in DCM), “Sluny”. Further, the “LVX Solubility” value in series [2] (Vial 2, 2.0% TDL, DCM+MeOH 4.3 g, 0.12% LVX in mix, 7.69% PLGA in DCM) is reported as “Less Slurry”; in series [2] (Vial 2, 2.0% TDL, DCM+MeOH 5.6 g, 0.09% LVX in mix, 5.92% PLGA in DCM), “Almost Clear”; in series [2] (Vial 3, 3.0% TDL, DCM+MeOH 2.6 g, 0.30% LVX in mix, 12.69% PLGA in DCM), “Shary”; in series [2] (Vial 3, 3.0% TDL, DCM+MeOH 3.3 g, 0.24% LVX in mix, 9.97% PLGA in DCM), “Slurry”; in series [2] (Vial 3, 3.0% TDL, DCM+MeOH 4.2 g, 0.18% LVX in mix, 7.70% PLGA in DCM), “Less Shury”; in series [2] (Vial 3, 3.0% TDL, DCM+MeOH 5.5 g, 0.14% LVX in mix, 5.95% PLGA in DCM) it was “Less Slurry”. The “LVX Solubility” value in series [2] (Vial 3, 3.0% TDL, DCM+MeOH 7.7 g, 0.10% LVX in mix, 4.25% PLGA in DCM) is “Almost Clear”; in series [2] (Vial 3, 3.0% TDL, DCM+MeOH 9.6 g, 0.08% LVX in mix, 3.39% PLGA in DCM), “Almost Clear”; in series [2] (Vial 3, 3.0% TDL, DCM+MeOH 12.3 g, 0.06% LVX in mix, 2.65% PLGA in DCM), “Clear”; in series [2] (Vial 4, 4.0% TDL, DCM+MeOH 2.6 g, 0.39% LVX in mix, 12.33% PLGA in DCM) it was “Slurry”; in series [2] (Vial 4, 4.0% TDL, DCM+MeOH 3.3 g, 0.31% LVX in mix, 9.82% PLGA in DCM), “Shary”; in series [2] (Vial 4, 4.0% TDL, DCM+MeOH 4.3 g, 0.24% LVX in mix, 7.56% PLGA in DCM), “Slurry”. For the same compound, the “LVX Solubility” value in series [2] (Vial 4, 4.0% TDL, DCM+MeOH 5.6 g, 0.19% LVX in mix, 5.87% PLGA in DCM) was “Less Slurry”.
